Measurements from patent publication US9388389B2, “JFH-1 based HCV cell culture systems for NS5A of genotypes 1-7” (Hvidovre Hospital, priority 2009, dated 2016).

What was measured:
[1] = tested on: J6/JFH1 with NS5A mutation I37V; assay: BMS-790052 treatment of infected cultures; type: cell-based, hepatitis C virus
[2] = tested on: J6/JFH1 with NS5A mutation K30A; assay: BMS-790052 treatment of infected cultures; type: cell-based, hepatitis C virus
[3] = tested on: genotype 1 replicons; settings: cited from earlier work
[4] = tested on: HCV NS5A genotype 1-7 recombinants; assay: BMS-790052 treatment of infected cultures, high-throughput assay; type: cell-based; settings: Hepatitis C virus, most isolates
Experimental: (§1) 5×10^3 naïve Huh7.5 cells were plated per well in a poly-D-lysine coated 96-well plate (Nunc, Roskilde, D K) one day before infection with different recombinant viruses. Infectious doses were chosen to aim at 400-1000 single infected cells in non-treated wells at the end of the experiment. J6/JFH1 was included with two infectious doses (high and low) to control for impact of dose variability. The infectious dose of other recombinants was in the range between. […] On day three cells were fixed and immunostained for NS3 expression as described above. In parallel, cell viability was monitored with CellTiter™ 96 AQueous One Solution Cell Proliferation Assay (Promega, Madison, Wis. USA). The number of single infected cells was determined by automated counting of individual wells as described above.
(§2) To improve HCV treatment, much attention has been drawn to development of specific small molecule HCV inhibitors, including inhibitors of NS5A. Using the NS5A genotype recombinants, we investigated sensitivity to the NS5A inhibitor most advanced in clinical trials, BMS-790052. Treatment experiments using the specific NS5A inhibitor BMS-790052 (synthesized by Acme Bioscience, Palo Alto, Calif., USA) were conducted similar to what was described for interferon-alpha.

[5] = tested on: JFH1(2a)-Y93H; assay: BMS-790052 treatment of infected cultures; type: cell-based, hepatitis C virus
Experimental: as §1, §2
(§3) The best described resistance mutation for this drug class, change of NS5A residue 93, induced >10-fold resistance to BMS-790052 for genotype 1 replicons. We changed this residue to histidine in the NS5A genotype 1-6 recombinants; QC69(7a) naturally had histidine. In BMS-790052 treatment experiments, H77C(1a)-Y93H, JFH1(2a)-Y93H and S52(3a)-Y93H were >1000-fold, J4(1b)-Y93H, J6(2a)-Y93H and ED43(4a)-Y93H˜100-fold, and SA13(5a)-T93H and HK6a(6a)-T93H<5-fold more resistant than the respective original recombinants (Table 21). […] The presence of L31M in the J6(2a) isolate and C92E in the S52(3a) isolate corresponded to the higher resistance of these isolates. Further, the lower sensitivity of J1(1a) compared to other 1a recombinants could be caused by the histidine found at NS5A residue 30, previously associated with resistance in patients.

[6] = tested on: H77C(1a)-Y93H; assay: BMS-790052 treatment of infected cultures; type: cell-based, hepatitis C virus
Experimental: as §1, §2, §3

[7] = tested on: SA13(5a)-T93H; assay: BMS-790052 treatment of infected cultures; type: cell-based, hepatitis C virus
Experimental: as §1, §2, §3

[8] = tested on: HK6a(6a)-T93H; assay: BMS-790052 treatment of infected cultures; type: cell-based, hepatitis C virus
Experimental: as §1, §2, §3

[9] = tested on: J6/JFH1 with JFH1 NS5A domain I exchanged to the J6 sequence; assay: BMS-790052 treatment of infected cultures; type: cell-based, hepatitis C virus
Experimental: as §1, §2, §3

[10] = tested on: ED43(4a)-Y93H; assay: BMS-790052 treatment of infected cultures; type: cell-based, hepatitis C virus
Experimental: as §1, §2, §3

[11] = tested on: J6(2a)-Y93H; assay: BMS-790052 treatment of infected cultures; type: cell-based, hepatitis C virus
Experimental: as §1, §2, §3

[12] = tested on: J6/JFH1 with NS5A mutation L31M; assay: BMS-790052 treatment of infected cultures; type: cell-based, hepatitis C virus
Experimental: as §1, §2, §3

[13] = tested on: S52(3a)-Y93H; assay: BMS-790052 treatment of infected cultures; type: cell-based, hepatitis C virus
Experimental: as §1, §2, §3

[14] = tested on: J6/JFH1 with NS5A mutation C92E; assay: BMS-790052 treatment of infected cultures; type: cell-based, hepatitis C virus
Experimental: as §1, §2, §3

[15] = tested on: J4(1b)-Y93H; assay: BMS-790052 treatment of infected cultures; type: cell-based, hepatitis C virus
Experimental: as §1, §2, §3

With `COC(=O)N[C@H](C(=O)N1CCC[C@H]1c1nc(-c2ccc(-c3ccc(-c4c[nH]c([C@@H]5CCCN5C(=O)[C@@H](NC(=O)OC)C(C)C)n4)cc3)cc2)c[nH]1)C(C)C` [BMS-790052] the EC50 ([1]; Hepatitis C virus, JFH1(2a), NS5A mutation I37V, single experiment of three replicates, read-out: NS5A inhibitor, EC50 (nM), putative resistance mutant) was 0.17 nM, the “Fold resistance compared to original” value ([1]; JFH1(2a) I37V vs original JFH1(2a)) was 2.0 fold and the EC50 ([2]; Hepatitis C virus, JFH1(2a), NS5A mutation K30A, single experiment of three replicates, read-out: NS5A inhibitor, EC50 (nM), putative resistance mutant) was 0.034 nM. For the same molecule, the “Fold resistance compared to original” value ([2]; JFH1(2a) K30A vs original JFH1(2a)) was 0.38 fold, the “fold resistance induced by change of NS5A residue 93” value [3] was over 10 fold and the EC50 [4] was under 0.1 nM. For the same molecule, the EC50 ([5]; Hepatitis C virus, JFH1(2a), NS5A mutation Y93H, read-out: NS5A inhibitor, EC50 (nM), putative resistance mutant) was 140 nM, the “Fold resistance compared to original” value ([5]; JFH1(2a) Y93H vs original JFH1(2a)) was 1600 fold and the “fold more resistant than the respective original recombinant” value ([5]; JFH1(2a)-Y93H) was over 1000 fold. The “Fold resistance compared to original” value ([6]; H77C(1a) Y93H vs original H77C(1a)) was 4300 fold, the “fold more resistant than the respective original recombinant” value ([6]; H77C(1a)-Y93H) was over 1000 fold and the EC50 ([6]; Hepatitis C virus, H77C(1a), NS5A mutation Y93H, read-out: NS5A inhibitor, EC50 (nM), putative resistance mutant) was 110 nM. For the same molecule, the EC50 ([7]; Hepatitis C virus, SA13(5a), NS5A mutation T93H, read-out: NS5A inhibitor, EC50 (nM), putative resistance mutant) was 0.14 nM, the “Fold resistance compared to original” value ([7]; SA13(5a) T93H vs original SA13(5a)) was 4.2 fold and the “fold more resistant than the respective original recombinant” value ([7]; SA13(5a)-T93H) was under 5 fold. For the same molecule, the “Fold resistance compared to original” value ([8]; HK6a(6a) T93H vs original HK6a(6a)) was 4.3 fold, the “fold more resistant than the respective original recombinant” value ([8]; HK6a(6a)-T93H) was under 5 fold and the EC50 ([8]; Hepatitis C virus, HK6a(6a), NS5A mutation T93H, read-out: NS5A inhibitor, EC50 (nM), putative resistance mutant) was 0.14 nM. For the same molecule, the EC50 ([9]; Hepatitis C virus, genotype 2a, J6 (domain I), single experiment of three replicates, read-out: NS5A inhibitor, EC50 (nM), original) was 19 nM, the “resistance” value ([9]; exchange of JFH1 NS5A domain I to the corresponding J6 sequence) was “confer resistance” and the “Fold resistance compared to original” value ([10]; ED43(4a) Y93H vs original ED43(4a)) was 30 fold. For the same molecule, the “fold more resistant than the respective original recombinant” value ([10]; ED43(4a)-Y93H) was about 100 fold, the EC50 ([10]; Hepatitis C virus, read-out: NS5A inhibitor, EC50 (nM), putative resistance mutant) was 0.53 nM and the EC50 ([11]; Hepatitis C virus, J6(2a), NS5A mutation Y93H, read-out: NS5A inhibitor, EC50 (nM), putative resistance mutant) was 2000 nM. The “Fold resistance compared to original” value ([11]; J6(2a) Y93H vs original J6(2a)) was 140 fold, the “fold more resistant than the respective original recombinant” value ([11]; J6(2a)-Y93H) was about 100 fold and the EC50 ([12]; Hepatitis C virus, JFH1(2a), NS5A mutation L31M, single experiment of three replicates, read-out: NS5A inhibitor, EC50 (nM), putative resistance mutant) was 17 nM. For the same molecule, the “Fold resistance compared to original” value ([12]; JFH1(2a) L31M vs original JFH1(2a)) was 190 fold, the “resistance” value ([12]; NS5A L31M in the J6/JFH1 background) was “confer resistance” and the EC50 ([13]; Hepatitis C virus, S52(3a), NS5A mutation Y93H, read-out: NS5A inhibitor, EC50 (nM), putative resistance mutant) was 1900 nM. The “Fold resistance compared to original” value ([13]; S52(3a) Y93H vs original S52(3a)) was 2100 fold, the “fold more resistant than the respective original recombinant” value ([13]; S52(3a)-Y93H) was over 1000 fold and the EC50 ([14]; Hepatitis C virus, JFH1(2a), NS5A mutation C92E, single experiment of three replicates, read-out: NS5A inhibitor, EC50 (nM), putative resistance mutant) was 14 nM. The “Fold resistance compared to original” value ([14]; JFH1(2a) C92E vs original JFH1(2a)) was 170 fold, the “resistance” value ([14]; NS5A C92E in the J6/JFH1 background) was “confer resistance” and the EC50 ([15]; Hepatitis C virus, J4(1b), NS5A mutation Y93H, read-out: NS5A inhibitor, EC50 (nM), putative resistance mutant) was 0.77 nM. For the same molecule, the “Fold resistance compared to original” value ([15]; J4(1b) Y93H vs original J4(1b)) was 82 fold and the “fold more resistant than the respective original recombinant” value ([15]; J4(1b)-Y93H) was about 100 fold.
